Results taken from US20110040086A1, “Novel Beta-Lactam Antibiotics, Methods for Their Production, and Their Use” (DRITTE PATENTPORTFOLIO BETEILIGUNGSGESELLSCHAFT MB, priority 2007, published 2011).

Columns and labels:
S. epidermidis 1068 = assay: agar diffusion test (Test System II, multi-resistant germs); assay type: cell-based, Staphylococcus epidermidis; set-up: key: r = resistant (no detectable zone of inhibition)
Experimental: (§1) The test substances are deposited in stepped quantities (10 μg, 50 μg, 100 μg) onto active ingredient carriers (sensi-discs). For this purpose, the test substances are dissolved in methanol or A. dest. according to their solubility. Each inoculated plate is fitted with 3 test sheets.
(§2) Test System II (Effect Against Multi-Resistant Germs)
(§3) For this purpose, bacteria is cultivated on Müller-Hinton-Agar II plates.
(§4) With 1-1.5 ml physiological saline solution, a bacteria suspension of McFarland 0.5 (corresponds to a bacteria density of 150×10^6 germs) is produced. Then, with a sterile glass rod, a small drop of bacteria suspension is placed on the Müller-Hinton-Agar plate and coated in three layers (vertical, horizontal, and transverse). Thereafter, the sensi-discs with the novel semi-synthetic test substances are placed on top. The fitted plates are incubated for 18-20 hours at 37° C. After incubation, the diameters of the zones of inhibition are read as a measure for the antimicrobial activity of the novel semi-synthetic test substances.

S. epidermidis 563 = assay: as above; assay type: cell-based, Staphylococcus epidermidis; set-up: key: r = resistant (no detectable zone of inhibition)
Experimental: as §1, §2, §3, §4

S. epidermidis 1071 = assay: as above; assay type: cell-based, Staphylococcus epidermidis; set-up: key: r = resistant (no detectable zone of inhibition)
Experimental: as §1, §2, §3, §4

S. epidermidis 847 = assay: as above; assay type: cell-based, Staphylococcus epidermidis; set-up: key: r = resistant (no detectable zone of inhibition)
Experimental: as §1, §2, §3, §4

[1] = tested on: Escherichia coli SBUG 1135; assay: agar diffusion test (Test System 1, antimicrobial effect); assay type: cell-based; set-up: key: r = resistant (no detectable zone of inhibition)
Experimental: (§5) Test System 1 (Antimicrobial Effect)
(§6) The test germs Escherichia coli SBUG 1135 and Bacillus megaterium SBUG 1152 are drawn overnight (17 hours at 37° C.) in 5 ml nutrient medium II. The incubation is performed in a shaking incubator (INFORS AG CH 4103, Bottmingen, Switzerland) at a shaking frequency of 180 rpm.
(§7) After 17 h incubation time, Escherichia coli has reached a cell density of ca. 2.4×10^10 cells/ml and Bacillus megaterium a cell density of ca. 2.1×10^8 cells/ml.
(§8) The seeding of bacteria in agar is selected so that, dense, but not confluent individual colonies develop after the incubation.
Escherichia coli: the ÜN is diluted 1:100 with physiological saline solution, of which 0.1 ml is converted into 10 ml nutrient agar. That corresponds to a cell count of 10^6.
(§9) The inoculated nutrient agar is set in sterile Petri dishes and left standing for a few minutes for drying.
as §1
(§10) After a 20-hour incubation time at 37° C., the zones of inhibition around the individual test sheets could be measured. The diameter of the zone of inhibition is specified in mm.

E. faecalis 945 = assay: agar diffusion test (Test System II, multi-resistant germs); assay type: cell-based, Enterococcus faecalis; set-up: key: r = resistant (no detectable zone of inhibition)
Experimental: as §1, §2, §3, §4

S. aureus 520 = assay: as above; assay type: cell-based, Staphylococcus aureus; set-up: key: r = resistant (no detectable zone of inhibition)
Experimental: as §1, §2, §3, §4

[2] = tested on: S. aureus North Germany strain; assay: as above; assay type: cell-based, Staphylococcus aureus; set-up: key: r = resistant (no detectable zone of inhibition)
Experimental: as §1, §2, §3, §4

S. aureus 36881 = assay: as above; assay type: cell-based, Staphylococcus aureus; set-up: key: r = resistant (no detectable zone of inhibition)
Experimental: as §1, §2, §3, §4

S. aureus 33490 = assay: as above; assay type: cell-based, Staphylococcus aureus; set-up: key: r = resistant (no detectable zone of inhibition)
Experimental: as §1, §2, §3, §4

S. aureus 526 = assay: as above; assay type: cell-based, Staphylococcus aureus; set-up: key: r = resistant (no detectable zone of inhibition)
Experimental: as §1, §2, §3, §4

S. aureus 39105 = assay: as above; assay type: cell-based, Staphylococcus aureus; set-up: key: r = resistant (no detectable zone of inhibition)
Experimental: as §1, §2, §3, §4

S. aureus 34289 = assay: as above; assay type: cell-based, Staphylococcus aureus; set-up: key: r = resistant (no detectable zone of inhibition)
Experimental: as §1, §2, §3, §4

B. subtilis AWD 166 = assay: agar diffusion test (antimicrobial effect); assay type: cell-based, Bacillus subtilis
Experimental: as §8, §9, §1, §10

S. epidermidis 125 = assay: agar diffusion test (Test System II, multi-resistant germs); assay type: cell-based, Staphylococcus epidermidis
Experimental: as §1, §2, §3, §4

S. aureus 38418 = assay: as above; assay type: cell-based, Staphylococcus aureus
Experimental: as §1, §2, §3, §4

S. aureus ATCC 6538 = assay: as above; assay type: cell-based, Staphylococcus aureus
Experimental: as §1, §2, §3, §4

[3] = tested on: Bacillus megaterium SBUG 1152; assay: agar diffusion test (Test System 1, antimicrobial effect); assay type: cell-based
Experimental: as §5, §6, §7, §8
Bacillus megaterium: 0.1 ml of non-diluted overnight culture (ÜN) in 10 ml nutrient agar corresponds to a cell count of 10^6.
as §9, §1, §10

[4] = tested on: Staphylococcus aureus 315; assay: agar diffusion test (Test System II, multi-resistant germs); assay type: cell-based; set-up: key: r = resistant (no detectable zone of inhibition)
Experimental: as §1, §2, §3, §4

[5] = tested on: Enterococcus faecalis 769; assay: as above; assay type: cell-based; set-up: key: r = resistant (no detectable zone of inhibition)
Experimental: as §1, §2, §3, §4

With `COC(=O)C1=C(NC(C(=O)NC2C(=O)N3C(C(=O)O)=C(C)CSC23)c2ccccc2)C(=O)C=CC1=O` (stereo not drawn) [1g, 7-[2-(2-methoxycarbonyl-3,6-dioxocyclohexa-1,4-dienylamino)-2-phenyl-acetylamino]-desacetoxycephalosporanic acid] the “Diameter of zone of inhibition” value (S. epidermidis 1068; Quantity n 0.029) was “r”, the “Diameter of zone of inhibition” value (S. epidermidis 1068; Quantity n 0.14) was 14 mm and the “Diameter of zone of inhibition” value (S. epidermidis 1068; Quantity n 0.29) was 18 mm. The “Diameter of zone of inhibition” value (S. epidermidis 563; Quantity n 0.029) was “r”, the “Diameter of zone of inhibition” value (S. epidermidis 563; Quantity n 0.14) was 8 mm and the “Diameter of zone of inhibition” value (S. epidermidis 563; Quantity n 0.29) was 14 mm. The “Diameter of zone of inhibition” value (S. epidermidis 1071; Quantity n 0.029) was “r”, the “Diameter of zone of inhibition” value (S. epidermidis 1071; Quantity n 0.14) was 18 mm and the “Diameter of zone of inhibition” value (S. epidermidis 1071; Quantity n 0.29) was 22 mm. For the same molecule, the “Diameter of zone of inhibition” value (S. epidermidis 847; Quantity n [mol] 0.029) was “r”, the “Diameter of zone of inhibition” value (S. epidermidis 847; Quantity n [mol] 0.14) was 14 mm and the “Diameter of zone of inhibition” value (S. epidermidis 847; Quantity n [mol] 0.29) was 18 mm. The “Diameter of zone of inhibition” value ([1]; Quantity n 0.029) was “r”, the “Diameter of zone of inhibition” value ([1]; Quantity n 0.14) was 16 mm and the “Diameter of zone of inhibition” value ([1]; Quantity n 0.29) was 22 mm. The “Diameter of zone of inhibition” value (E. faecalis 945; Quantity n 0.029) was “r”, the “Diameter of zone of inhibition” value (E. faecalis 945; Quantity n 0.14) was “r” and the “Diameter of zone of inhibition” value (E. faecalis 945; Quantity n 0.29) was “r”. For the same molecule, the “Diameter of zone of inhibition” value (S. aureus 520; Quantity n [mol] 0.029) was “r”, the “Diameter of zone of inhibition” value (S. aureus 520; Quantity n [mol] 0.14) was “r” and the “Diameter of zone of inhibition” value (S. aureus 520; Quantity n [mol] 0.29) was “r”. For the same molecule, the “Diameter of zone of inhibition” value ([2]; Quantity n 0.029) was “r”, the “Diameter of zone of inhibition” value ([2]; Quantity n 0.14) was 10 mm and the “Diameter of zone of inhibition” value ([2]; Quantity n 0.29) was 14 mm. For the same molecule, the “Diameter of zone of inhibition” value (S. aureus 36881; Quantity n 0.029) was “r”, the “Diameter of zone of inhibition” value (S. aureus 36881; Quantity n 0.14) was “r” and the “Diameter of zone of inhibition” value (S. aureus 36881; Quantity n 0.29) was 12 mm. The “Diameter of zone of inhibition” value (S. aureus 33490; Quantity n [μmol] 0.029) was “r”, the “Diameter of zone of inhibition” value (S. aureus 33490; Quantity n [μmol] 0.14) was 20 mm and the “Diameter of zone of inhibition” value (S. aureus 33490; Quantity n [μmol] 0.29) was 24 mm. For the same molecule, the “Diameter of zone of inhibition” value (S. aureus 526; Quantity n 0.029) was “r”, the “Diameter of zone of inhibition” value (S. aureus 526; Quantity n 0.14) was “r” and the “Diameter of zone of inhibition” value (S. aureus 526; Quantity n 0.29) was “r”. For the same molecule, the “Diameter of zone of inhibition” value (S. aureus 39105; Quantity n 0.029) was “r”, the “Diameter of zone of inhibition” value (S. aureus 39105; Quantity n 0.14) was 10 mm and the “Diameter of zone of inhibition” value (S. aureus 39105; Quantity n 0.29) was 18 mm. The “Diameter of zone of inhibition” value (S. aureus 34289; Quantity n [mol] 0.029) was “r”, the “Diameter of zone of inhibition” value (S. aureus 34289; Quantity n [mol] 0.14) was “r” and the “Diameter of zone of inhibition” value (S. aureus 34289; Quantity n [mol] 0.29) was “r”. For the same molecule, the “Diameter of zone of inhibition” value (B. subtilis AWD 166; Quantity n 0.029) was 24 mm, the “Diameter of zone of inhibition” value (B. subtilis AWD 166; Quantity n 0.14) was 30 mm and the “Diameter of zone of inhibition” value (B. subtilis AWD 166; Quantity n 0.29) was 32 mm. The “Diameter of zone of inhibition” value (S. epidermidis 125; Quantity n 0.029) was 14 mm, the “Diameter of zone of inhibition” value (S. epidermidis 125; Quantity n 0.14) was 24 mm and the “Diameter of zone of inhibition” value (S. epidermidis 125; Quantity n 0.29) was 28 mm. The “Diameter of zone of inhibition” value (S. aureus 38418; Quantity n [mol] 0.029) was 16 mm, the “Diameter of zone of inhibition” value (S. aureus 38418; Quantity n [mol] 0.14) was 26 mm and the “Diameter of zone of inhibition” value (S. aureus 38418; Quantity n [mol] 0.29) was 30 mm. The “Diameter of zone of inhibition” value (S. aureus ATCC 6538; Quantity n 0.029) was 20 mm, the “Diameter of zone of inhibition” value (S. aureus ATCC 6538; Quantity n 0.14) was 28 mm and the “Diameter of zone of inhibition” value (S. aureus ATCC 6538; Quantity n 0.29) was 32 mm. The “Diameter of zone of inhibition” value ([3]; Quantity n 0.029) was 20 mm, the “Diameter of zone of inhibition” value ([3]; Quantity n 0.14) was 30 mm and the “Diameter of zone of inhibition” value ([3]; Quantity n 0.29) was 34 mm. For the same molecule, the “Diameter of zone of inhibition” value ([4]; Quantity n 0.029) was “r”, the “Diameter of zone of inhibition” value ([4]; Quantity n 0.14) was “r” and the “Diameter of zone of inhibition” value ([4]; Quantity n 0.29) was 12 mm. The “Diameter of zone of inhibition” value ([5]; Quantity n 0.029) was “r”, the “Diameter of zone of inhibition” value ([5]; Quantity n 0.14) was “r” and the “Diameter of zone of inhibition” value ([5]; Quantity n 0.29) was “r”.
